Results as given in patent US7767659B2, “Synthesis of naturally occurring ecteinascidins and related compounds” (Pharma Mar, S.A., priority 2002, dated 2010).
Like-named read-outs stand apart in the source and are kept apart here.

Experiments:
HeLa = assay: Inhibition of cells growth by colorimetric assay (SRB); settings: Homo sapiens, HeLa, 48 h
Protocol: (§1) This form of the assay employs 96 well cell culture microplates of 9 mm diameter (Faircloth, 1988; Mosmann, 1983). Most of the cell lines are obtained from American Type Culture Collection (ATCC) derived from different human cancer types.
(§2) Cells are maintained in RPMI 1640 10% FBS, supplemented with 0.1 g/l penicillin and 0.1 g/l streptomycin sulfate and then incubated at 37° C., 5% CO2 and 98% humidity. For the experiments, cells were harvested from subconfluent cultures using trypsin and resuspended in fresh medium before plating.
(§3) Cells are seeded in 96 well microtiter plates, at 5×10^3 cells per well in aliquots of 195 μl medium, and they are allowed to attach to the plate surface by growing in drug free medium for 18 hours. Afterward, samples are added in aliquots of 5 μl in a ranging from 10 to 10^−8 μg/ml, dissolved in DMSO/EtOH/PBS (0.5:0.5:99). After 48 hours exposure, the antitumor effect are measured by the SRB methodology: cells are fixed by adding 50 μl of cold 50% (wt/vol) trichloroacetic acid (TCA) and incubating for 60 minutes at 4° C. Plates are washed with deionized water and dried. One hundred μl of SRB solution (0.4% wt/vol in 1% acetic acid) is added to each microtiter well and incubated for 10 minutes at room temperature. Unbound SRB is removed by washing with 1% acetic acid. Plates are air dried and bound stain is solubilzed with Tris buffer. Optical densities are read on a automated spectrophotometric plate reader at a single wavelength of 490 nm.
(§4) The values for mean +/− SD of data from triplicate wells are calculated. Some parameters for cellular responses can be calculated: GI=growth inhibition, TGI=total growth inhibition (cytostatic effect) and LC=cell killing (cytotoxic effect).

DU-145 = assay: as above; settings: Homo sapiens, DU-145, 48 h; for GI50: read-out: GI50 DU145; for IC (TGI): read-out: TGI DU145
Protocol: as §1, §2, §3, §4

LNCaP = assay: as above; settings: Homo sapiens, LNCaP, 48 h; for GI50: read-out: GI50 LNCAP; for CC50: read-out: LC50 LNCAP; for IC (TGI): read-out: TGI LNCAP
Protocol: as §1, §2, §3, §4

HeLa-APL = assay: as above; settings: Homo sapiens, 48 h
Protocol: as §1, §2, §3, §4

LoVo-Dox = assay: as above; settings: Homo sapiens, 48 h
Protocol: as §1, §2, §3, §4

IGROV-ET = assay: as above; settings: Homo sapiens, 48 h
Protocol: as §1, §2, §3, §4

SK-BR-3 = assay: as above; settings: Homo sapiens, SK-BR-3, 48 h
Protocol: as §1, §2, §3, §4

SK-MEL-28 = assay: as above; settings: Homo sapiens, SK-MEL-28, 48 h; for GI50: read-out: GI50 MEL-28; for CC50: read-out: LC50 MEL-28; for IC (TGI): read-out: TGI MEL-28
Protocol: as §1, §2, §3, §4

PANC-1 = assay: as above; settings: Homo sapiens, PANC-1, 48 h
Protocol: as §1, §2, §3, §4

K-562 = assay: as above; settings: Homo sapiens, K562, 48 h
Protocol: as §1, §2, §3, §4

IGROV-1 = assay: as above; settings: Homo sapiens, IGROV-1, 48 h
Protocol: as §1, §2, §3, §4

LoVo = assay: cells; settings: Homo sapiens, LoVo, 48 h
Protocol: as §1, §2, §3, §4

A-549 = assay: cells; settings: Homo sapiens, A549, 48 h; for GI50: read-out: GI50 A549; for CC50: read-out: LC50 A549; for IC (TGI): read-out: TGI A549
Protocol: as §1, §2, §3, §4

HT-29 = assay: cells; settings: Homo sapiens, HT-29, 48 h; for GI50: read-out: GI50 HT29; for IC (TGI): read-out: TGI HT29
Protocol: as §1, §2, §3, §4

C=CCN1[C@@H]2c3c(cc(C)c(OC)c3O)C[C@H]1[C@H](C#N)N1C2[C@@H]2SC[C@H](NC(=O)c3cc4ccccc4oc3=O)C(=O)OC[C@H]1c1c3c(c(C)c(OC(C)=O)c12)OCO3 (some centres unmarked) [compound 28]
GI50 (HeLa; read-out: GI50 HELA): 38.6 nM | CC50 (HeLa; read-out: LC50 HELA): 289 nM | IC (TGI) (HeLa; read-out: TGI HELA): 75.5 nM | GI50 (DU-145): 35.8 nM | IC (TGI) (DU-145): 1270 nM | GI50 (LNCaP): 22.9 nM | CC50 (LNCaP): 111 nM | IC (TGI) (LNCaP): 50.4 nM | GI50 (HeLa-APL; read-out: GI50 HELA-APL): 55.9 nM | CC50 (HeLa-APL; read-out: LC50 HELA-APL): 682 nM | IC (TGI) (HeLa-APL; read-out: TGI HELA-APL): 130 nM | GI50 (LoVo-Dox; read-out: GI50 LOVO-DOX): 362 nM | IC (TGI) (LoVo-Dox; read-out: TGI LOVO-DOX): 1220 nM | GI50 (IGROV-ET; read-out: GI50 IGROV-ET): 138 nM | CC50 (IGROV-ET; read-out: LC50 IGROV-ET): 898 nM | IC (TGI) (IGROV-ET; read-out: TGI IGROV-ET): 352 nM | GI50 (SK-BR-3; read-out: GI50 SK-BR3): 47.3 nM | CC50 (SK-BR-3; read-out: LC50 SK-BR3): 1220 nM | IC (TGI) (SK-BR-3; read-out: TGI SK-BR3): 164 nM | GI50 (SK-MEL-28): 56.8 nM | CC50 (SK-MEL-28): 692 nM | IC (TGI) (SK-MEL-28): 135 nM | GI50 (PANC-1; read-out: GI50 PANC-1): 59.2 nM | IC (TGI) (PANC-1; read-out: TGI PANC-1): 197 nM | GI50 (K-562; read-out: GI50 K562): 28.3 nM | CC50 (K-562; read-out: LC50 K562): 2690 nM | IC (TGI) (K-562; read-out: TGI K562): 135 nM | GI50 (IGROV-1; read-out: GI50 IGROV): 49 nM | CC50 (IGROV-1; read-out: LC50 IGROV): 1570 nM | IC (TGI) (IGROV-1; read-out: TGI IGROV): 155 nM | GI50 (LoVo; read-out: GI50 LOVO): 66.3 nM | CC50 (LoVo; read-out: LC50 LOVO): 687 nM | IC (TGI) (LoVo; read-out: TGI LOVO): 212 nM | GI50 (A-549): 52.5 nM | CC50 (A-549): 2270 nM | IC (TGI) (A-549): 163 nM | GI50 (HT-29): 76.5 nM | IC (TGI) (HT-29): 2050 nM

CCC(=O)NC1CS[C@@H]2c3c(OC(C)=O)c(C)c4c(c3[C@H](COC1=O)N1C2[C@@H]2N[C@@H](Cc3cc(C)c(OC)c(O)c32)[C@@H]1C#N)OCO4 (some centres unmarked) [compound 33]
GI50 (HeLa; read-out: HELA GI50): 5.02 nM | CC50 (HeLa; read-out: HELA LC50): 96.9 nM | IC (TGI) (HeLa; read-out: HELA TGI): 16.1 nM | GI50 (DU-145): 8.02 nM | CC50 (DU-145; read-out: LC50 DU145): 4410 nM | IC (TGI) (DU-145): 15.6 nM | GI50 (LNCaP): 2.86 nM | CC50 (LNCaP): 11.1 nM | IC (TGI) (LNCaP): 5.64 nM | GI50 (HeLa-APL; read-out: HELA-APL GI50): 5.24 nM | CC50 (HeLa-APL; read-out: HELA-APL LC50): 115 nM | IC (TGI) (HeLa-APL; read-out: HELA-APL TGI): 19.1 nM | GI50 (LoVo-Dox; read-out: LOVO-DOX GI50): 367 nM | CC50 (LoVo-Dox; read-out: LOVO-DOX LC50): 5900 nM | IC (TGI) (LoVo-Dox; read-out: LOVO-DOX TGI): 940 nM | GI50 (SK-BR-3; read-out: SK-BR3 GI50): 4.83 nM | CC50 (SK-BR-3; read-out: SK-BR3 LC50): 385 nM | IC (TGI) (SK-BR-3; read-out: SK-BR3 TGI): 13.9 nM | GI50 (SK-MEL-28): 12.8 nM | CC50 (SK-MEL-28): 97.9 nM | IC (TGI) (SK-MEL-28): 36.7 nM | GI50 (PANC-1; read-out: PANC-1 GI50): 19.9 nM | CC50 (PANC-1; read-out: PANC-1 LC50): 4510 nM | IC (TGI) (PANC-1; read-out: PANC-1 TGI): 122 nM | GI50 (K-562; read-out: K562 GI50): 5.49 nM | CC50 (K-562; read-out: K562 LC50): 2830 nM | IC (TGI) (K-562; read-out: K562 TGI): 159 nM | GI50 (IGROV-1; read-out: IGROV GI50): 98.5 nM | CC50 (IGROV-1; read-out: IGROV LC50): 1580 nM | IC (TGI) (IGROV-1; read-out: IGROV TGI): 426 nM | GI50 (LoVo; read-out: LOVO GI50): 19.9 nM | CC50 (LoVo; read-out: LOVO LC50): 145 nM | IC (TGI) (LoVo; read-out: LOVO TGI): 53.6 nM | GI50 (A-549): 26.2 nM | CC50 (A-549): 149 nM | IC (TGI) (A-549): 62.4 nM | GI50 (HT-29): 17.3 nM | CC50 (HT-29; read-out: LC50 HT29): 9810 nM | IC (TGI) (HT-29): 271 nM
